Columns and labels:
[1] = DRUGMATRIX: Purinergic P2X radioligand binding (ligand: [3H] alpha, beta-Methylene-ATP); assay type: cell membranes, Oryctolagus cuniculus, New Zealand albino, Urinary bladder, Membrane; conditions: Not Active = under 50% inhibition at 10 µM
[2] = DRUGMATRIX: GABAA, Muscimol, Central radioligand binding (ligand: [3H] Muscimol); assay type: cell membranes, Rattus norvegicus, Wistar, Brain, Membrane; conditions: Not Active = under 50% inhibition at 10 µM
[3] = molecular target: Acetylcholinesterase (Homo sapiens, UniProt P22303); assay: DRUGMATRIX: Acetylcholinesterase enzyme inhibition (substrate: acetylthiocholine); assay type: cell-based, HEK293; conditions: hek293; Not Active = under 50% inhibition at 10 µM
[4] = molecular target: T1, Cytochrome P450 1A2 (Homo sapiens, UniProt P05177); conditions: bti-tn-5b1-4; further: in other assays of this panel Not Active means under 50% inhibition at 10 µM
T1 sequence (P05177 whole entry): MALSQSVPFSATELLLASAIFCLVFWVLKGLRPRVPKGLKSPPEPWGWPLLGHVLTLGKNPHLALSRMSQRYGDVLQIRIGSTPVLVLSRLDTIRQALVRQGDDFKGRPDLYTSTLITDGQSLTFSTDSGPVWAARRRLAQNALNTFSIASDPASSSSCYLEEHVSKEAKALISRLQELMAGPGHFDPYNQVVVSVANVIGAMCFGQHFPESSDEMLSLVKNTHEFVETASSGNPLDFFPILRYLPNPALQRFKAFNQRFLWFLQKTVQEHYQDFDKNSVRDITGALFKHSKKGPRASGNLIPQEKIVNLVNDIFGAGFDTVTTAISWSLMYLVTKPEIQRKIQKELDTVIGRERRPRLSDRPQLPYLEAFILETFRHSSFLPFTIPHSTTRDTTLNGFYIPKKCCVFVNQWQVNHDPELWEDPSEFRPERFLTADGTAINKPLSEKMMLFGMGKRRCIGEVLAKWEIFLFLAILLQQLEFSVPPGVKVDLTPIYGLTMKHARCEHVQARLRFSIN

[5] = molecular target: T2, Nitric oxide synthase, inducible (Mus musculus, UniProt P29477); set-up: species or system Escherichia coli;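 further: inhibition of iNOS enzyme activity measured with L-arginine as substrate; in other assays of this panel Not Active means under 50% inhibition at 10 µM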
T2 sequence (P29477 whole entry): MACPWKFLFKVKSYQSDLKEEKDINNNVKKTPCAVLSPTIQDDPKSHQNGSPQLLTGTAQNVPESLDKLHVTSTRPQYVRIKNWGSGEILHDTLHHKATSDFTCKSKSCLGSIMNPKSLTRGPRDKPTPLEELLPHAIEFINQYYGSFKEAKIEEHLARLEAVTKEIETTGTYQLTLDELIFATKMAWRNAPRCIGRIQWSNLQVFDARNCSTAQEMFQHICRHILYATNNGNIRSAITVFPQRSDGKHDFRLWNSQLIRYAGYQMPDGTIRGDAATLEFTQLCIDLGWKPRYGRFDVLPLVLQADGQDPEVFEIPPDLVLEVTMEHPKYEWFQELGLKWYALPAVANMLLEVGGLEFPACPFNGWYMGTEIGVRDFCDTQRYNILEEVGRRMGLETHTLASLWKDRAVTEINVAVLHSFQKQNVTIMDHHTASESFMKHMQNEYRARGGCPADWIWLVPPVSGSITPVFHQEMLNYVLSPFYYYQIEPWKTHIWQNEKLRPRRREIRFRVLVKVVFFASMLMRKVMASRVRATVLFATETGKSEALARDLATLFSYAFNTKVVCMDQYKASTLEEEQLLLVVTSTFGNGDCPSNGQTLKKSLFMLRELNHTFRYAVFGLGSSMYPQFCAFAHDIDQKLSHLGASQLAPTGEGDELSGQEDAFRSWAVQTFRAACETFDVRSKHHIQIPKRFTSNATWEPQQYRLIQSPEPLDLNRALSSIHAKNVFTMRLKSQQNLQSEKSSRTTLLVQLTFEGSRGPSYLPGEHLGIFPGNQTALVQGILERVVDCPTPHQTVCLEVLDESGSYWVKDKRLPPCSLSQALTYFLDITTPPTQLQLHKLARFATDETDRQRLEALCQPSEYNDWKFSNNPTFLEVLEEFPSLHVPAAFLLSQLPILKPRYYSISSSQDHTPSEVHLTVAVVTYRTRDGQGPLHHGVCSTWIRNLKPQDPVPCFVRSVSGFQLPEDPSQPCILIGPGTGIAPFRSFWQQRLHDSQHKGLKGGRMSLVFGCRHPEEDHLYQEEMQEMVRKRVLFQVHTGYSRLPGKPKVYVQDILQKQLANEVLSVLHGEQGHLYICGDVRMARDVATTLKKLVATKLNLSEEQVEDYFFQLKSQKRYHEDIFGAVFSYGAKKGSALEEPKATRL

[6] = molecular target: T3, B2 bradykinin receptor (Homo sapiens, UniProt P30411); assay type: cell membranes, Membrane; conditions: chem-1; further: in other assays of this panel Not Active means under 50% inhibition at 10 µM
T3 sequence (P30411 whole entry): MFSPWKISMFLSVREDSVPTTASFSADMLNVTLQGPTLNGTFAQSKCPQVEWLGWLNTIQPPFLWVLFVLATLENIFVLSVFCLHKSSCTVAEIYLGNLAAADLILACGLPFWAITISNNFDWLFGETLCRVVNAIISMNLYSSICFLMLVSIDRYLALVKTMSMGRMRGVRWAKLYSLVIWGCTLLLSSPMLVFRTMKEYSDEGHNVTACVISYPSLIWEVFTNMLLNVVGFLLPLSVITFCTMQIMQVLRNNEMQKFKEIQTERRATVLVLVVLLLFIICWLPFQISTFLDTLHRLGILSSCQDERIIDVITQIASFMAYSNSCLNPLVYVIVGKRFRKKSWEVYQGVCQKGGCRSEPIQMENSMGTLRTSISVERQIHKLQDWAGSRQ

[7] = DRUGMATRIX: Serotonin (5-Hydroxytryptamine) 5-HT3 radioligand binding (ligand: [3H] GR-65630); assay type: cell membranes, Membrane; conditions: hek293; Not Active = under 50% inhibition at 10 µM
[8] = molecular target: T4, Muscarinic acetylcholine receptor M5 (Homo sapiens, UniProt P08912); assay type: cell membranes, Membrane; conditions: cho-k1; further: in other assays of this panel Not Active means under 50% inhibition at 10 µM
T4 sequence (P08912 whole entry): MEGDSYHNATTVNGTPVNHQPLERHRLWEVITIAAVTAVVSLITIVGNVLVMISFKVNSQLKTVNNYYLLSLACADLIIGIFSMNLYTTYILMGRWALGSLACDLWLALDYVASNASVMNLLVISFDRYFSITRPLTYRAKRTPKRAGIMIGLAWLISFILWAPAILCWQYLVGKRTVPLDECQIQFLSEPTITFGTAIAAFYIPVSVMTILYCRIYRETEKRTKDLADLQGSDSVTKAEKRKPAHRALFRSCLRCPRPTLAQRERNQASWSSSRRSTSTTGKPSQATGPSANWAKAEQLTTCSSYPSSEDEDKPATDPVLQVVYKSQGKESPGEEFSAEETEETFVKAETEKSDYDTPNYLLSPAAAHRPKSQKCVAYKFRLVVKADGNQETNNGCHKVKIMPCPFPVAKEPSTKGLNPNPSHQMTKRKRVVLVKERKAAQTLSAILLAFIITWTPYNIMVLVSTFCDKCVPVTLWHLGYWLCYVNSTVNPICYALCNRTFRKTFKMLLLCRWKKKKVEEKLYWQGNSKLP

Chain of Acetylcholinesterase (P22303 whole entry): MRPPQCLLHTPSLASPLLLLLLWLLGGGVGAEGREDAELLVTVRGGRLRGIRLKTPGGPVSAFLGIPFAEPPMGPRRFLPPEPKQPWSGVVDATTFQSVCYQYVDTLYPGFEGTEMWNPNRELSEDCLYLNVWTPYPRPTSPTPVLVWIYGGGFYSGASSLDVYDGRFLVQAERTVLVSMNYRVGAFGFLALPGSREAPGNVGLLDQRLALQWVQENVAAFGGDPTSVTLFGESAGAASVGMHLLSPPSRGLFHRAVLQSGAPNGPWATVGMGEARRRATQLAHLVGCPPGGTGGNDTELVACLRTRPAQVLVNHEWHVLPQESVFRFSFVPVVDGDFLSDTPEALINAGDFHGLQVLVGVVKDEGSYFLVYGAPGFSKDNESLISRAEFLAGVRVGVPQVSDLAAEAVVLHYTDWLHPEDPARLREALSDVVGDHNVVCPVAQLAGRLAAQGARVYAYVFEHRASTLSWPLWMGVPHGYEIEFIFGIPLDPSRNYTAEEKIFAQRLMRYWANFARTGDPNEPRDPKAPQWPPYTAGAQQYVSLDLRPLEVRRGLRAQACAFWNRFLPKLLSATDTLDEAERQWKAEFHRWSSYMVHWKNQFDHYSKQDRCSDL

CO[C@@]1(NC(=O)CSCC#N)C(=O)N2C(C(=O)O)=C(CSc3nnnn3C)CS[C@@H]21 [CEFMETAZOLE]
Not Active: IC50 [1] | Ki [1] | IC50 [2] | Ki [2] | IC50 [3] | IC50 [4] | Ki [4] | IC50 [5] | IC50 [6] | IC50 [7] | Ki [7] | IC50 [8]

CN(C(=O)CCCOc1ccc2[nH]c(=O)ccc2c1)C1CCCCC1 [CILOSTAMIDE]
Not Active: IC50 [1] | Ki [1] | IC50 [2] | Ki [2] | IC50 [3] | IC50 [4] | Ki [4] | IC50 [5] | IC50 [6] | IC50 [7] | Ki [7] | IC50 [8]

CC(C)(Oc1ccc(C2CC2(Cl)Cl)cc1)C(=O)O (stereo not given) [CIPROFIBRATE]
Not Active: IC50 [1] | Ki [1] | IC50 [2] | Ki [2] | IC50 [3] | IC50 [4] | Ki [4] | IC50 [5] | IC50 [6] | IC50 [7] | Ki [7] | IC50 [8]

Nc1nc(Cl)nc2c1ncn2[C@H]1C[C@H](O)[C@@H](CO)O1 [CLADRIBINE]
Not Active: IC50 [1] | Ki [1] | IC50 [2] | Ki [2] | IC50 [3] | IC50 [4] | Ki [4] | IC50 [5] | IC50 [6] | IC50 [7] | Ki [7] | IC50 [8]

CC[C@H]1OC(=O)[C@H](C)[C@@H](O[C@H]2C[C@@](C)(OC)[C@@H](O)[C@H](C)O2)[C@H](C)[C@@H](O[C@@H]2O[C@H](C)C[C@H](N(C)C)[C@H]2O)[C@](C)(OC)C[C@@H](C)C(=O)[C@H](C)[C@@H](O)[C@]1(C)O [CLARITHROMYCIN]
Not Active: IC50 [1] | Ki [1] | IC50 [2] | Ki [2] | IC50 [3] | IC50 [4] | Ki [4] | IC50 [5] | IC50 [6] | IC50 [7] | Ki [7] | IC50 [8]

O=C(O)c1cc(=O)c2c(OCC(O)COc3cccc4oc(C(=O)O)cc(=O)c34)cccc2o1 [CROMOLYN]
Not Active: IC50 [1] | Ki [1] | IC50 [2] | Ki [2] | IC50 [3] | IC50 [4] | Ki [4] | IC50 [5] | IC50 [6] | IC50 [7] | Ki [7] | IC50 [8]

O=P1(N(CCCl)CCCl)NCCCO1 (stereo not given) [CYCLOPHOSPHAMIDE ANHYDROUS]
Not Active: IC50 [1] | Ki [1] | IC50 [2] | Ki [2] | IC50 [3] | IC50 [4] | Ki [4] | IC50 [5] | IC50 [6] | IC50 [7] | Ki [7] | IC50 [8]

CC(=O)O[C@]1(C(C)=O)CC[C@H]2[C@@H]3C=C(Cl)C4=CC(=O)[C@@H]5C[C@@H]5[C@]4(C)[C@H]3CC[C@@]21C [CYPROTERONE ACETATE]
Not Active: IC50 [1] | Ki [1] | IC50 [2] | Ki [2] | IC50 [3] | IC50 [4] | Ki [4] | IC50 [5] | IC50 [6] | IC50 [7] | Ki [7] | IC50 [8]

Nc1nc(N)nc(NC2CC2)n1 [CYROMAZINE]
Not Active: IC50 [1] | Ki [1] | IC50 [2] | Ki [2] | IC50 [3] | IC50 [4] | Ki [4] | IC50 [5] | IC50 [6] | IC50 [7] | Ki [7] | IC50 [8]

C#C[C@]1(O)CC[C@H]2[C@@H]3CCC4=Cc5oncc5C[C@]4(C)[C@H]3CC[C@@]21C [DANAZOL]
Not Active: IC50 [1] | Ki [1] | IC50 [2] | Ki [2] | IC50 [3] | IC50 [4] | Ki [4] | IC50 [5] | IC50 [6] | IC50 [7] | Ki [7] | IC50 [8]

Reference: ChEMBL document CHEMBL1909046, “DrugMatrix in vitro pharmacology data”
